Legend:
A549 cells [1] = test: Annexin V/PI staining, FACS; type: cell-based, human; settings: A549, 10 μM and 20 μM, 24 hours
Description: (§1) Cancer cells were cultured in a 6-well plate for 24 hours along with 20 μM of ciclesonide for the case of breast cancer and 10 μM or 20 μM of ciclesonide or DMSO for the case of lung cancer. In accordance with the manufacturer's protocol, apoptotic cells were double-stained with PI and FITC-Annexin V. The sample was analyzed by flow cytometry (Accuri C6, BD, San Diego, Calif., USA).

MDA-MB-231 cells [2] = test: Annexin V/PI staining, FACS; type: cell-based, human; settings: MDA-MB-231, 20 μM, 24 hours
Description: as §1

A549 cells [3] = test: Caspase-3/7 analysis (Caspase-Glo 3/7); type: cell-based, human; settings: A549, 80 μM, 24 hours
Description: (§2) Breast cancer cells and lung cancer cells were treated with ciclesonide at different concentrations for 24 hours. Caspase-3/7 activity was measured in accordance with the manufacturer's protocol for the Caspase-Glo 3/7 kit (Promega, Wisconsin, USA). 100 μl of a Caspase-Glo 3/7 reagent was added to a 96-well plate where cancer cells were cultured. The plate was covered with a plate sealer, followed by culture at room temperature for 1 hour, and measured using a plate-reading luminometer, GloMax® Explorer (Promega, Wisconsin, USA).

MDA-MB-231 cells [4] = test: Caspase-3/7 analysis (Caspase-Glo 3/7); type: cell-based, human; settings: MDA-MB-231, 40 μM and 80 μM, 24 hours
Description: as §2

A549 cells [5] = test: Apoptosis analysis by fluorescence staining (Hoechst 33258); type: cell-based, human; settings: A549, 30 μM, 24 hours
Description: (§3) MDA-MB-231 cells were treated with 20 μM ciclesonide or A549 cells were treated with 30 μM ciclesonide, for 24 hours and the cells were incubated in 10 mg/ml of a Hoechst 33258 solution at 37° C. for 30 minutes. Subsequently, the cells were observed using a fluorescence microscope.

MDA-MB-231 cells [6] = test: as above; type: cell-based, human; settings: MDA-MB-231, 20 μM, 24 hours
Description: as §3

A549 cells [7] = test: Scratch migration analysis; type: cell-based, human; settings: A549, wound healing at 18 hours
Description: (§4) MDA-MB-231 cells or A549 cells were inoculated into a 6-well plate and grown to 90% confluency. A scratch was made on the cell layer using a sterile white micropipette tip. After washing with DMEM medium, the breast cancer cells or lung cancer cells were treated with ciclesonide or DMSO. At 18 hours, wounded areas were photographed using an optical microscope at a magnification of ×40.

MDA-MB-231 cells [8] = test: Scratch migration analysis; type: cell-based, human; settings: MDA-MB-231, wound healing at 18 hours
Description: as §4

[9] = system: MCF-7 cell xenograft tumor; test: Breast cancer xenograft model in NOD-SCID female nude mice; type: in vivo; settings: MCF-7 xenograft, 10 mg/kg
Description: A total of 12 NOD-SCID (BALB/cSIc (nu/nu)) female nude mice producing breast cancer cells were divided into two groups. […] The volume of tumors of each control mouse was measured every three days and calculated by the following equation: (width×length^2)/2. The other six nude mice received neoadjuvant chemotherapy using a test drug by infusion at an optimum dose of 10 mg/kg/day.

STAT3 = test: Electrophoretic mobility shift assay (EMSA) of mammosphere nuclear extract; type: cell-based, human; settings: ciclesonide-treated mammosphere nuclear extract
mammospheres = test: Mammosphere proliferation (cell counting); type: cell-based, human; settings: mammospheres treated 2 days, single cells replated and counted
Description: FIG. 6B illustrates the effect of ciclesonide on mammosphere growth wherein ciclesonide inhibits the growth of mammospheres, mammospheres having been treated with ciclesonide or DMSO for 2 days were separated into single cells and plated in 6 cm dishes at the same density. 24 hours after plating, the cells were counted, on days 2 and 3, the cells were counted three times, and plotted as mean values, and the data was expressed as the mean±SD for the three independent experimental results. *p<0.05 vs. DMSO-treated control.

[10] = system: A549 cell xenograft tumor; test: Lung cancer xenograft model in NOD-SCID male nude mice; type: in vivo; settings: 10 mg/kg
Description: A total of 12 NOD-SCID (BALB/cSIc (nu/nu)) male nude mice producing lung cancer cells were divided into two groups. […] The volume of tumors of each control mouse was measured every three days and calculated by the following equation: (width×length^2)/2. The other six nude mice received neoadjuvant chemotherapy using a test drug by infusion at an optimum dose of 10 mg/kg/day.

A549 cells [11] = test: ALDEFLUOR analysis, lung cancer cells; type: cell-based, human; settings: 24 hours
Description: An ALDEFLUOR analysis system provides a novel approach to the identification, evaluation, and isolation of CSCs based on the activity of aldehyde dehydrogenase (ALDH). BODIPY-aminoacetaldehyde as an active reagent was added to breast cancer cells or lung cancer cells, and converted into fluorescent BODIPY-aminoacetate by ALDH. Diethylaminobenzaldehyde (DEAB), which is an ALDH inhibitor, was used as a negative control. MCF-7 cells or A549 cells were treated with 10 μM or 20 μM ciclesonide for 24 hours, and the proportion of ALDH-positive cells was analyzed by ALDEFLUOR assay. ALDH-positive and negative cells were sorted by C6 Accuri flow cytometry (BD Bioscience).

C-myc = test: Real-time PCR of CSC markers in tumorspheres; type: cell-based, human; settings: RT-PCR, vs group not treated
Description: (§5) The levels of transcripts were measured with a One Step SYBR PrimeScript RT-PCR kit (Takara, Tokyo, Japan) using SYBR green as a double-stranded DNA-specific dye in accordance with the manufacturer's protocol. One-step RT-PCR was performed on 1 μg of total RNA, 10 μl of 2× One Step SYBR RT-PCR Buffer IV, and 1 μl of PrimeScript 1 step Enzyme Mix II using PCR forward and reverse primers of each of CD44, NANOG, OCT4, C-myc, Sox2, Snail, and β-actin at a final volume of 20 μl per reaction.
(§6) The relative expression level of mRNA of the target gene was calculated using a comparative CT method. At least three independent PCR procedures were performed in accordance with statistical analysis. PCR products were normalized with the […] gene as an internal control.

Nanog = test: Real-time PCR of CSC markers in tumorspheres; type: cell-based, human; settings: RT-PCR, vs group not treated
Description: as §5, §6

Snail = test: Real-time PCR of CSC markers in tumorspheres; type: cell-based, human; settings: RT-PCR, vs group not treated
Description: as §5, §6

Sox2 = test: Real-time PCR of CSC markers in tumorspheres; type: cell-based, human; settings: RT-PCR, vs group not treated
Description: as §5, §6

CC(C)C(=O)OCC(=O)[C@@]12O[C@H](C3CCCCC3)O[C@@H]1C[C@H]1[C@@H]3CCC4=CC(=O)C=C[C@]4(C)[C@H]3[C@@H](O)C[C@@]12C [ciclesonide]
number of apoptotic lung cancer cells (annexin V+) (A549 cells [1]): increased | number of apoptotic breast cancer cells (annexin V+) (MDA-MB-231 cells [2]): increased | caspase 3/7 activity (A549 cells [3]): induced | caspase 3/7 activity (MDA-MB-231 cells [4]): induced | formation of apoptotic bodies (A549 cells [5]): apoptotic bodies were formed | formation of apoptotic bodies (MDA-MB-231 cells [6]): apoptotic bodies were formed | migration (A549 cells [7]): inhibited | migration (MDA-MB-231 cells [8]): inhibited | tumor volume vs control not treated [9]: smaller | tumor weight vs control not treated [9]: smaller | binding between the biotin-labeled SIE probe and Stat3 (STAT3): inhibited | proliferation of mammospheres (mammospheres): significantly reduced | tumor volume vs control not treated [10]: smaller | tumor weight vs control not treated [10]: smaller | proportion of ALDH-positive lung cancer cells (A549 cells [11]): reduced | expression of C-myc (C-myc): reduced | expression of Nanog (Nanog): reduced | expression of Snail (Snail): reduced | expression of Sox2 (Sox2): reduced

— patent publication US11191746B2, “Composition for inhibiting a growth of cancer stem cells comprising ciclesonide” (JEJU NATIONAL UNIVERSITY INDUSTRY-ACADEMIC COOPERATION …, priority 2016, dated 2021)
